In ChEMBL document CHEMBL3217706, “Identification of CYP1A2 ligands by structure-based and ligand-based virtual screening” (Medchemcomm, 2011):

What was measured:
Cytochrome P450 1A2 = target: T1, Cytochrome P450 1A2 (Homo sapiens, UniProt P05177); assay: Inhibition of human recombinant CYP1A2 EROD activity expressed in Escherichia coli JM109 assessed as inhibition of de-ethylation of 7-ethoxyresorufin to resorufin by spectrofluorometric analysis; type: ADME
T1 sequence (P05177 whole entry): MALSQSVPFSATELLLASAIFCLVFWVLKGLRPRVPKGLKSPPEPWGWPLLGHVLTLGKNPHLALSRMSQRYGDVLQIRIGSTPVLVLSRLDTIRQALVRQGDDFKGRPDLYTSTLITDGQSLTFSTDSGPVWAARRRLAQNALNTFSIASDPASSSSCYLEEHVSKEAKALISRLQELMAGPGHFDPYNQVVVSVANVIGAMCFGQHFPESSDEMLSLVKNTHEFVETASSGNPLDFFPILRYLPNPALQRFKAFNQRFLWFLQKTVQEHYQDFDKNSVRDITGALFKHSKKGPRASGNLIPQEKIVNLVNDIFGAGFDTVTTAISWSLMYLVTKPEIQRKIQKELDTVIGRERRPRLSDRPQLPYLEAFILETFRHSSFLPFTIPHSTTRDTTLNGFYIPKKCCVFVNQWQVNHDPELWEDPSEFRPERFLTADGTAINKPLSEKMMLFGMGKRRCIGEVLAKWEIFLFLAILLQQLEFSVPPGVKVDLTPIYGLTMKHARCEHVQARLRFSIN

CYP1A2 = target: T2, CYP1A2 (Homo sapiens, UniProt P05177); assay: Inhibition of human recombinant CYP1A2 EROD activity expressed in Escherichia coli JM109 assessed as inhibition of de-ethylation of 7-ethoxyresorufin to resorufin at 0.3 uM by spectrofluorometric analysis; type: ADME; settings: recombinant human CYP1A2 expressed in Escherichia coli JM109, probe 7-ethoxyresorufin
T2 sequence (P05177 whole entry): T1 sequence (P05177 whole entry)

| SMILES | IC50 (Cytochrome P450 1A2) [nM] | inhibition at 0.3 µM (CYP1A2) [%] |
| --- | --- | --- |
| COc1ccc(Nc2nc(-c3cccs3)cs2)cc1 | 72 | > 50 |
| Cc1nn(-c2ccccc2)c2nc(C(F)(F)F)cc(C(F)(F)F)c12 | 231 | > 50 |
| COc1ccc(C=O)cc1COc1c(Cl)cc(Cl)cc1Cl | 57 | > 50 |
| N#CC1=C(N)Oc2c(ccc3ccccc23)C1c1ccc2c(c1)OCC2 (centres undefined) | 112 | > 50 |
| C(=N\n1cnnc1)/c1ccc(-c2cccc3ccccc23)o1 | 48 | > 50 |
| CN1C(=O)/C(=C2\NC(=S)NC2=O)c2cc(Br)ccc21 | 49 | > 50 |
| Brc1ccc2c3c(cccc13)-c1nc3ccccc3nc1-2 | 22 | > 50 |
| O=[N+]([O-])c1ccc2nc3c(nc2c1)-c1cccc2cccc-3c12 | 21 | > 50 |
| Cn1c(=O)cc2c3c(c(N)ccc31)C(=O)c1ccccc1-2 | 16 | > 50 |
| O=c1cc(-c2ccccc2)oc2c1ccc1ccccc12 [ALPHA-NAPHTHOFLAVONE] |  | > 50 |
